Data set [1] has as its system Colletotrichum lagenarium (Synonym: Colletotrichum orbiculare). The data set can be described thus: Test on the preventive effect against cucumber anthracnose. The class given is in vivo. The note with it: 168 h, 100 ppm solution (symbol *), 5 ml per pot sprayed, 2 days inoculation chamber then 7 days at 23° C.
Another data set concerns Botrytis cinerea. The data set can be described thus: Test on the preventive effect against cucumber gray mold (spore inoculation). The class given is in vivo. The note with it: 72 h, test solution A 500 ppm, 5 ml per pot, cucumber cut leaves, conidium inoculation, 3 days at 20° C. How it is done:
Compounds of the present invention were dissolved in a solvent for emulsion (a mixture of Sorpol (registered trademark) 3005XL (manufactured by Toho Chemical Industry Co., Ltd.): N-methylpyrrolidone: Solvesso (registered trademark) 200 (manufactured by ExxonMobil Chemical) in a ratio of 1:5:2) to prepare 20 wt % emulsifiable concentrates. Then, distilled water was added to dilute the emulsifiable concentrates to the prescribed concentration (500 ppm), and the obtained solutions were used in the following the Test Examples 1 to 8. Cucumber (varieties: Sagami Hanjiro) was seeded in 90 cm^3 plastic pot, and at the cotyledon stage, 5 ml per pot of test solution A of the compounds of the present invention was applied. After drying in air, the treated leaves were cut and transferred in plastic containers. 30 μl of a mixture of a suspension of conidium of Botrytis cinerea and a dissolved PDA medium in a ratio of 1:1 was dropped on each treated leaf and inoculated. After the inoculation, the plastic containers were placed in 20° C. with humid conditions for 3 days, and the proportion of the formed lesion in the inoculated leaves were counted to calculate the control value in accordance with the same formula as in the Test Example 1. The test was carried out in duplicate.

The test system of data set [2] is Phaeosphaeria nodorum (Synonym: Septoria nodorum). The data set can be described thus: Test on the preventive effect against wheat glume blotch. The format is in vivo. The note with it: Parastagonospora nodorum, 144 h; test solution A 500 ppm, 5 ml per pot, wheat 1.3-leaf stage, 2 days inoculation chamber then 6 days at 20° C. As for the experimental part:
Compounds of the present invention were dissolved in a solvent for emulsion (a mixture of Sorpol (registered trademark) 3005XL (manufactured by Toho Chemical Industry Co., Ltd.): N-methylpyrrolidone: Solvesso (registered trademark) 200 (manufactured by ExxonMobil Chemical) in a ratio of 1:5:2) to prepare 20 wt % emulsifiable concentrates. Then, distilled water was added to dilute the emulsifiable concentrates to the prescribed concentration (500 ppm), and the obtained solutions were used in the following the Test Examples 1 to 8. Wheat (varieties: Haruyutaka) was seeded in 90 cm^3 plastic pot, and at 1.3-leaf stage, 5 ml per pot of test solution A of the compounds of the present invention was applied. One day after treatment, a suspension of conidium of Phaeosphaeria nodorum (Synonym: Septoria nodorum) was sprayed to the wheat, and the pot was left in the inoculation chamber at 20° C. under humidity of 100% RH for 2 days. Then, the pot was placed in an air-conditioned greenhouse (20° C.) for 6 days. The proportion of the formed lesion in the inoculated leaves were measured to calculate the control value in accordance with the same formula as in the Test Example 1. The test was carried out in duplicate.

Data set [3] has as its system Erysiphe polygoni (synonym: Erysiphe betae). In words: Test on the preventive effect against cucumber powdery mildew. The format is in vivo. Particulars: 216 h, test solution A 500 ppm, 5 ml per pot sprayed, cucumber cotyledon stage, 9 days after inoculation. How it is done:
Compounds of the present invention were dissolved in a solvent for emulsion (a mixture of Sorpol (registered trademark) 3005XL (manufactured by Toho Chemical Industry Co., Ltd.): N-methylpyrrolidone: Solvesso (registered trademark) 200 (manufactured by ExxonMobil Chemical) in a ratio of 1:5:2) to prepare 20 wt % emulsifiable concentrates. Then, distilled water was added to dilute the emulsifiable concentrates to the prescribed concentration (500 ppm), and the obtained solutions were used in the following the Test Examples 1 to 8. Cucumber (varieties: Sagami Hanjiro) was seeded in 90 cm^3 plastic pot, and at the cotyledon stage, 5 ml per pot of test solution A of the compounds of the present invention was sprayed. After drying in air, the pot was placed in an air-conditioned greenhouse (20° C.), and a suspension of conidium of Erysiphe polygoni (synonym: Erysiphe betae) was sprayed. After the pot were replaced at the same temperature for 9 days, the proportion of the formed lesion in the inoculated leaves were counted to calculate the control value in accordance with the following formula. The test was carried out in duplicate. Control value=[1−(lesion area ratio in treated plot/lesion are a ratio in non-treated plot)]×100

The subject of data set [4] is Colletotrichum lagenarium (Synonym: Colletotrichum orbiculare). The data set can be described thus: Test on the preventive effect against cucumber anthracnose. Particulars: 168 h, test solution A 500 ppm, 5 ml per pot sprayed, 2 days inoculation chamber then 7 days at 23° C. The format is in vivo. As for the experimental part:
Compounds of the present invention were dissolved in a solvent for emulsion (a mixture of Sorpol (registered trademark) 3005XL (manufactured by Toho Chemical Industry Co., Ltd.): N-methylpyrrolidone: Solvesso (registered trademark) 200 (manufactured by ExxonMobil Chemical) in a ratio of 1:5:2) to prepare 20 wt % emulsifiable concentrates. Then, distilled water was added to dilute the emulsifiable concentrates to the prescribed concentration (500 ppm), and the obtained solutions were used in the following the Test Examples 1 to 8. Cucumber (varieties: Sagami Hanjiro) was seeded in 90 cm^3 plastic pot, and at the cotyledon stage, 5 ml per pot of test solution A of the compounds of the present invention was sprayed. One day later, a suspension of conidium of Colletotrichum lagenarium (Synonym: Colletotrichum orbiculare) was sprayed, and the pot was left for 2 days in the inoculation chamber at 25° C. under humidity of 100% RH. Thereafter, the pot was placed in an air-conditioned greenhouse (23° C.) and left at the same temperature for 7 days. Thereafter, the proportion of the formed lesion in the inoculated leaves were measured to calculate the control value in accordance with the same formula as in Test Example 1. The test was carried out in duplicate.

Usually pest or weed control stands for the degree to which the test organism was suppressed or injured, in per cent. High values mean strong suppression, low ones weak suppression. What is called melting point is the temperature, or range, at which the solid turns liquid.

Each structure is given as a SMILES string.

In data set [1], `CC(Cc1ncc(C#CCO)cc1Cl)NC(=O)c1cn(C)nc1C(F)F` (stereo not drawn) [8-025] gave a pest or weed control at 100 ppm of at least 70%.

In the case of `CC(NC(=O)c1cccnc1C(F)F)C(SCC(F)(F)F)c1ncc(C#CC2CC2)cc1Cl` (stereo not drawn) [3-033a], the melting point fell in the range of 72 to 74 °C. Also, in the data set with Botrytis cinerea, the pest or weed control at 500 µg/mL is at least 70%. In addition, in data set [2], the pest or weed control at 500 µg/mL was at least 70%. Also, the pest or weed control at 500 µg/mL in data set [3] is at least 70%. This compound showed a pest or weed control at 500 µg/mL in data set [4] of at least 70%.
